Experimental data as given in US20240246977A1, “DEGRADATION OF BRUTON'S TYROSINE KINASE (BTK) BY CONJUGATION OF BTK INHIBITORS WITH E3 LIGASE LIGAND AND METHOD OF USE” (BeiGene Switzerland GmbH, priority 2021, published 2024).

Columns and labels:
HEK-293 cells = assay: HEK-293 cytotoxicity detection (CellTiter-Glo); assay type: cell-based; details: Homo sapiens, 72 h, 72 h incubation, CellTiter-Glo luminescence, read-out: HEK293
Outline: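 HEK-293 cells exposed 72 h to 8 compounds doses (4-fold dilutions, top stock 5 mM at 500×) in 0.2% DMSO. Viability by CellTiter-Glo luminescence; inhibition normalised to DMSO high control and low control, IC50 from four-parameter curve fit.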

BTK = BTK (Homo sapiens, UniProt Q06187); assay: BTK cell degradation in TMD-8 cells, HTRF assay; assay type: cell-based; parameters: endogenous in cells; host or cells: TMD-8 cells; details: 6 h treatment, IC50 (DC50) of BTK degradation
Outline: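 TMD-8 cells treated 6 h with 8-dose series (6-fold dilutions, 0.2% DMSO final), then lysed and BTK quantified by HTRF (337/665/620 nm) after overnight antibody incubation at room temperature. Degradation normalized to DMSO high and low controls; DC50 and Dmax from four-parameter fit.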

BTK, sequence (Q06187 whole entry): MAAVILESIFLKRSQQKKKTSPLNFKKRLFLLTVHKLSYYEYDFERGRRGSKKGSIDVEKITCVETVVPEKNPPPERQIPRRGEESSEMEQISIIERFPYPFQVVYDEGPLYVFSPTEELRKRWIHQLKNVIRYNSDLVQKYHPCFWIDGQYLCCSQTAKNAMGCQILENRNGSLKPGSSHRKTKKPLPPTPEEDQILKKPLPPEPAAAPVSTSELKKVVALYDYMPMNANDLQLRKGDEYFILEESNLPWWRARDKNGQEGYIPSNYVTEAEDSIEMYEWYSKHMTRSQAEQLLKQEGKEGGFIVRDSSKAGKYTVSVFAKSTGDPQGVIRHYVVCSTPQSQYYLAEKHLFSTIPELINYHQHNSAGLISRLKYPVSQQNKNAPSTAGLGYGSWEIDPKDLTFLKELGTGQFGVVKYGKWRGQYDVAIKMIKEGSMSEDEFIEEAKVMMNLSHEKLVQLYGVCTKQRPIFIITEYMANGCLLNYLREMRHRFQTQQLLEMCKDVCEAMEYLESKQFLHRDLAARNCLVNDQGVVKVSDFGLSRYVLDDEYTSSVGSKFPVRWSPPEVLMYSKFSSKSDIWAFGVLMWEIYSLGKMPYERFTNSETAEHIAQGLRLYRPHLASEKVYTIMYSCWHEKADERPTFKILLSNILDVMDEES

Row | DC50 (BTK) [nM] | Compound | IC50 (HEK-293 cells) [nM]
1 | 0.611 | COc1ccc(F)c(F)c1C(=O)NCc1ccc(-c2nn3c(c2C(N)=O)Nc2ccc(N4CCN(CC5CCN(c6ccc(N7CCC(=O)NC7=O)cc6)CC5)CC4)cc2CC3)cc1 [Example C25, 2-(4-((2,3-difluoro-6-methoxybenzamido)methyl)phenyl)-7-(4-((1-(4-(2,4-dioxotetrahydropyrimidin-1(2H)-yl)phenyl)piperidin-4-yl)methyl)piperazin-1-yl)-9,10-dihydro-4H-benzo[d]pyrazolo[1,5-a] [1,3]diazepine-3-carboxamide] | > 10000
2 | 1.79 | COc1ccc(C(F)(F)F)cc1C(=O)NCc1ccc(-c2nn3c(c2C(N)=O)Nc2ccc(N4CCN(CC5CCN(c6ccc(N7CCC(=O)NC7=O)cc6)CC5)CC4)cc2CC3)cc1F [Example C26, 7-(4-((1-(4-(2,4-dioxotetrahydropyrimidin-1(2H)-yl)phenyl)piperidin-4-yl)methyl)piperazin-1-yl)-2-(3-fluoro-4-((2-methoxy-5-(trifluoromethyl)benzamido)methyl)phenyl)-9,10-dihydro-4H-benzo[d]pyrazolo[1,5-a][1,3]diazepine-3-carboxamide] | 108
3 | 1.76 | COc1ccc(C(F)(F)F)cc1C(=O)NCc1ccc(-c2nn3c(c2C(N)=O)Nc2ccc(N4CCN(CC5CCN(c6ccc(N7CCC(=O)NC7=O)cc6)CC5)CC4)cc2CC3)c(OC)c1 [Example C27, 7-(4-((1-(4-(2,4-dioxotetrahydropyrimidin-1(2H)-yl)phenyl)piperidin-4-yl)methyl)piperazin-1-yl)-2-(2-methoxy-4-((2-methoxy-5-(trifluoromethyl)benzamido)methyl)phenyl)-9,10-dihydro-4H-benzo[d]pyrazolo[1,5-a][1,3]diazepine-3-carboxamide] | 209
4 | 1.15 | COc1ccc(C(F)(F)F)cc1C(=O)NCc1ccc(-c2nn3c(c2C(N)=O)Nc2ccc(N4CCN(CC5CCN(c6ccc(N7CCC(=O)NC7=O)cc6)CC5)CC4)cc2CC3)c(F)c1F [Example C28, 2-(2,3-difluoro-4-((2-methoxy-5-(trifluoromethyl)benzamido)methyl)phenyl)-7-(4-((1-(4-(2,4-dioxotetrahydropyrimidin-1(2H)-yl)phenyl)piperidin-4-yl)methyl)piperazin-1-yl)-9,10-dihydro-4H-benzo[d]pyrazolo[1,5-a][1,3]diazepine-3-carboxamide] | > 10000

The next lines start with the compound.

Row | Compound | DC50 (BTK) [nM] | IC50 (HEK-293 cells) [nM]
5 | COc1cccc(OC)c1C(=O)NCc1ccc(-c2nn3c(c2C(N)=O)Nc2ccc(N4CCN(CC5CCN(c6ccc(N7CCC(=O)NC7=O)cc6)CC5)CC4)cc2CC3)cc1 [Example C22, 2-(4-((2,6-dimethoxybenzamido)methyl)phenyl)-7-(4-((1-(4-(2,4-dioxotetrahydropyrimidin-1(2H)-yl)phenyl)piperidin-4-yl)methyl)piperazin-1-yl)-9,10-dihydro-4H-benzo[d]pyrazolo[1,5-a][1,3]diazepine-3-carboxamide] | 2.12 | > 10000
6 | COc1ccc(C(=O)NCc2ccc(-c3nn4c(c3C(N)=O)Nc3ccc(N5CCN(CC6CCN(c7ccc(N8CCC(=O)NC8=O)cc7)CC6)CC5)cc3CC4)cc2)c(OC)c1 [Example C23, 2-(4-((2,4-dimethoxybenzamido)methyl)phenyl)-7-(4-((1-(4-(2,4-dioxotetrahydropyrimidin-1(2H)-yl)phenyl)piperidin-4-yl)methyl)piperazin-1-yl)-9,10-dihydro-4H-benzo[d]pyrazolo[1,5-a][1,3]diazepine-3-carboxamide] | 2 | > 10000
7 | COc1ccc(C(F)(F)F)cc1C(=O)NCc1ccc(-c2nn3c(c2C(N)=O)Nc2ccc(N4CCN(CC5CCN(c6ccc(N7CCC(=O)NC7=O)cc6)CC5)CC4)cc2CC3)c(F)c1 [Example C24, 7-(4-((1-(4-(2,4-dioxotetrahydropyrimidin-1(2H)-yl)phenyl)piperidin-4-yl)methyl)piperazin-1-yl)-2-(2-fluoro-4-((2-methoxy-5-(trifluoromethyl)benzamido)methyl)phenyl)-9,10-dihydro-4H-benzo[d]pyrazolo[1,5-a][1,3]diazepine-3-carboxamide] | 2.11 | > 10000
